Like-named read-outs stand apart in the source and are kept apart here. Where a SMILES comes first, the peptide text is derived from it. [ ]: non-standard residue; d: D form. The star is where a group is joined. X1 = Nc1ncnc2c1ncn2[C@@H]1O[C@H](COP(=O)(O)OP(=O)(O)OP(=O)(O)SCC(=O)*)[C@@H](O)[C@H]1O; Phe(4-NH2) = Nc1ccc(C[C@H](N)C(=O)O)cc1; Dap = NC[C@H](N)C(=O)O
Tests used:
[1] = target: activated recombinant IRK (insulin receptor kinase) (Homo sapiens, UniProt P06213); test: Steady-state kinetic analysis of IRK inhibition (kinase assay); format: biochemical; conditions: for binding energy: binding to IRK
Protocol: FIG. 2. […] Assays were carried out using activated recombinant IRK as described previously. 6 a, E/V vs. 1/ATP in the presence of varying. Conditions: fixed IRS727 concentration ([…]), 20 mM MgCl2, 0.5 mM DTT, 6 nM IRK, 0.05% bovine serum albumin, Tris-Acetate pH 7, 10 min reaction time. b, E/V vs. 1/IRS727 in the presence of varying. Conditions same as for a except fixed ATP ([…]), 8 nM IRK and 5 min reaction time.
v=Vm(S)/[Km(1+I/Ki)+S]; v=initial velocity, Vm=maximal velocity, S=substrate concentration, Km=Michaelis constant. […] Conditions: Incubation of […] +/−5 mM 2 for 10 min in reaction buffer (20 mM MgCl2, 0.5 mM DTT, 0.05% BSA, 50 mM Tris-Acetate, pH 7) then dilute 1:50 into reaction buffer containing 1 mM ATP and […] peptide6 IRS939 and measure conversion by HPLC at times shown. To determine koff, data were fit to the equation^17: […]
Assays were carried out using activated recombinant IRK as described previously^6. For E/V vs. 1/ATP plot the conditions were: […] IRS727 concentration, 20 mM MgCl2, 0.5 mM DTT, 6 nM IRK, 0.05% bovine serum albumin, 50 mM Tris-Acetate pH 7, 10 min reaction time. For E/V vs. 1/IRS727 in the conditions were the same except fixed ATP ([…]) was employed, 8 nM IRK and 5 min reaction time.
v=Vm(S)/[Km(1+I/Ki)+S]; v=initial velocity, Vm=maximal velocity, S=substrate concentration, Km=Michaelis constant.

Csk = Csk (Homo sapiens, UniProt P41240); test: Inhibition of protein tyrosine kinase Csk; format: biochemical; conditions: read-out: Km (ATP)
Protocol: The specificity of inhibition was also tested by assaying 2 as an inhibitor of the protein tyrosine kinase Csk18. The peptide binding selectivity for Csk is quite different from IRK, and the IRS727 peptide moiety would be predicted to bind poorly to this enzyme^19. […] Thus the bisubstrate analog approach should allow for kinase selectivity based in part on peptide sequence.

[2] = Stability of compound in aqueous solution; format: physicochemical
Excerpt: The protected peptide was assembled using solid-phase peptide synthesis using Fmoc chemistry, in which the single tyrosine of IRS727 was replaced with commercially available nitrophenylalanine. The nitro group was reduced with SnCl2 and the aniline function was bromoacetylated via standard coupling conditions. The peptide was cleaved from the resin and deblocked with trifluoroacetic acid, water, and thioanisole and purified by reversed phase HPLC. […] The peptide-ATP conjugate 2 was purified by reversed phase HPLC and characterized by electrospray mass spectrometry and 1H NMR.

[3] = target: T1, recombinant mouse PKA (catalytic subunit) (Mus musculus, UniProt P05132); test: PKA inhibition assay (Calbiochem kit, Dixon plot); format: biochemical; conditions: preliminary assays
T1 construct: purchased Calbiochem
Protocol: Reagents from Calbiochem's Protein Kinase A kit were used to perform the inhibition assays and recombinant mouse PKA (catalytic subunit) was also purchased from Calbiochem (enzyme concentration was established by Bradford analysis). A 0.76 mM stock solution of kemptide-ATPγS conjugate was prepared and used to make serial dilutions into an aqueous MgCl2 solution (53 mM), producing a range of inhibitor concentrations from 144 uM to 1.4 μM with Mg2+ concentration of 47.7 mM. These were further diluted into water to produce a range of inhibitor solutions between 51 μM and 507 nM. An 11.25 μL aliquot from each of these solutions was pre-incubated with 7.5 μL of a 1.75 nM PKA enzyme solution (750 ug/uL bovine serum albumin) for 10 minutes at 30° C. after which 12.5 μL of pre-incubation mix was added to 12.5 μL of reaction mix (30 μM cold ATP, 50 μM biotinylated kemptide substrate, 0.04 uCi/μL γP-32 ATP, 80 mM Tris-HCl, 10 mM MgCl2, pH 7.5) to initiate the enzymatic reaction. […] The columns were placed in scintillation vials and radioactivity was measured using a scintillation counter.

Chain of activated recombinant IRK (insulin receptor kinase) (P06213 1005-1310 limits assumed): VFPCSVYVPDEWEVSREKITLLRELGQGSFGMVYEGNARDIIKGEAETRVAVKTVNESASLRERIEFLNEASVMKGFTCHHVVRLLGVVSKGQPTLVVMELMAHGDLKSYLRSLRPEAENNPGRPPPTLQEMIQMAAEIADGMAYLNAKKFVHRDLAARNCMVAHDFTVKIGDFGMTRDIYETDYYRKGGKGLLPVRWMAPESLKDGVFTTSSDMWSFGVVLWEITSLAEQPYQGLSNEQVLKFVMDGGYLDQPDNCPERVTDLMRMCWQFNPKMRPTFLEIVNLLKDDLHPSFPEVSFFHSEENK
Chain of Csk (P41240 whole entry, species assumed): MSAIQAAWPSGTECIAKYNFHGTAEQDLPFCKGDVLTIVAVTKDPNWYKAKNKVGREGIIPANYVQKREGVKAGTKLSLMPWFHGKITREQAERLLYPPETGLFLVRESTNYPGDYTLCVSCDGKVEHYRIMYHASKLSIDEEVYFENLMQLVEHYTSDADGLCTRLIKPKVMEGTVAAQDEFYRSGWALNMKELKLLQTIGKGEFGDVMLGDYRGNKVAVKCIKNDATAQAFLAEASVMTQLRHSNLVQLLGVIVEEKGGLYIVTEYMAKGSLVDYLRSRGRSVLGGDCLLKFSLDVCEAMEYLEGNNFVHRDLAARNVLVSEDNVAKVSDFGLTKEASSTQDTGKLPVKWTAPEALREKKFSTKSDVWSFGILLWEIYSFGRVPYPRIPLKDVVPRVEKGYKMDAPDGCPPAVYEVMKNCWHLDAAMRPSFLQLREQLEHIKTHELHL

**Q.** With `Nc1ncnc2c1ncn2[C@@H]1O[C@H](COP(=O)(O)OP(=O)(O)OP(=O)(O)O)[C@@H](O)[C@H]1O` [ATP, reference compound] as the molecule, how does the Km ([1]; substrates of IRK, read-out: Km app) read?
**A.** The Km was 71 µM.

**Q.** What about the Km (Csk) of the same molecule?
**A.** Its Km is 195 µM.

**Q.** For `CSCC[C@H](NC(=O)[C@H](Cc1ccc(NC(=O)CSP(=O)(O)OP(=O)(O)OP(=O)(O)OC[C@H]2O[C@@H](n3cnc4c(N)ncnc43)[C@H](O)[C@@H]2O)cc1)NC(=O)[C@H](CC(=O)O)NC(=O)CNC(=O)[C@@H](NC(=O)[C@H](C)NC(=O)[C@@H]1CCCN1C(=O)[C@H](CC(C)C)NC(=O)[C@H](CCCCN)NC(=O)[C@H](CCCCN)NC(=O)[C@H](CCCCN)NC(C)=O)[C@@H](C)O)C(=O)N[C@@H](CC(N)=O)C(=O)N[C@@H](CCSC)C(=O)N[C@@H](CO)C(=O)N1CCC[C@H]1C(=O)N[C@H](C(=O)NCC(=O)N[C@@H](CC(=O)O)C(=O)O)C(C)C` [Compound 2] (Ac-KKKLPATGD[Phe(4-NH2)](X1)MNMSPVGD-OH), which “mode of inhibition of IRK” value [1] is on record?
**A.** The value was “linear competitive inhibitor versus both nucleotide (FIG. 2a) and peptide (FIG. 2b) substrates”.

**Q.** What about the binding energy [1] of the same molecule?
**A.** Its binding energy is 8.9 kcal/mol.

**Q.** What about the half-life ([2]; acidic solution (pH 2), read-out: half life of decomposition (converted)) of the same molecule?
**A.** The half-life was about 2 h.

**Q.** And the storage stability ([2]; frozen solution at −80° C. for several weeks)?
**A.** Its storage stability is “without detectable decomposition”.

**Q.** And the “time stable in aqueous solution” value ([2]; neutral pH, room temperature)?
**A.** Its value is over 12 h.

**Q.** For `Nc1ncnc2c1ncn2[C@@H]1O[C@H](COP(=O)(O)OP(=O)(O)OP(=O)(O)SCC(=O)Nc2ccccc2)[C@@H](O)[C@H]1O` [Compound 3], which Ki [1] is on record?
**A.** The Ki was 114 µM.

**Q.** What about the “fold tighter binding than ATP-γS alone” value [1] of the same molecule?
**A.** The value was 2 fold.

**Q.** What about the “fold weaker as an inhibitor than 2” value [1] of the same molecule?
**A.** Its value is “approximately 300 fold”.

**Q.** What about the “mode of inhibition of IRK” value [1] of the same molecule?
**A.** Its value is “linear competitive inhibitor of IRK versus ATP”.

**Q.** Which “inhibition of PKA (in words)” value [3] does the source give for `CC(=O)N[C@@H](CC(C)C)C(=O)N[C@@H](CCCNC(=N)N)C(=O)N[C@@H](CCCNC(=N)N)C(=O)N[C@@H](C)C(=O)N[C@@H](CNC(=O)CSP(=O)(O)OP(=O)(O)OP(=O)(O)OC[C@H]1O[C@@H](n2cnc3c(N)ncnc32)[C@H](O)[C@@H]1O)C(=O)N[C@@H](CC(C)C)C(=O)NCC(=O)O` [kemptide-ATPγS conjugate] (Ac-LRRA[Dap](X1)LG-OH) here?
**A.** Its value is “inhibitory to PKA”.

**Q.** And the Ki ([3]; reversible competitive inhibition model, read-out: calculated Ki versus ATP)?
**A.** The Ki was 9.6 µM.

**Q.** Which binding energy [1] does the source give for “adenosine 5′-O-3-thiotriphosphate [ATPγS, reference compound]” here?
**A.** The binding energy was 5.1 kcal/mol.

**Q.** And the Ki ([1]; linear competitive versus ATP, read-out: Ki versus ATP)?
**A.** The Ki was 210 µM.

From patent US7045617B2, “Bisbubstrate inhibitors of kinases” (priority 2000, dated 2006)
